Measurements reported in patent US20240391931A1 (Bristol-Myers Squibb Company, priority 2021, published 2024).

Legend:
Ba/F3 HER2YVMA cells = experiment: Cellular proliferation in Ba/F3 HER2YVMA cells; assay type: cell-based, murine; conditions: Mus musculus, BaF3, read-out: Ba/F3 YVMA GI50
Procedure: (§1) Engineered lines expressing HER2YVMA and HER2 WT were prepared in HEK293 (human embryonic kidney cells), Ba/F3 (Interleukin 3 (IL3)-dependent murine pro B cell line), and BEAS2B (primary immortalized human bronchial epithelial cell line). Ba/F3, BEAS2B, and HEK293 cells were obtained from the American Type Culture Collection (ATCC, Manassas, VA). Parental Ba/F3 cells were grown in suspension in complete RPMI 1640 supplemented with 10% FBS and 1% P/S and 10 ng/ml interleukin 3 (IL3, Sigma-Aldrich). Hek293 and BEAS2B cells were grown as monolayers in DMEM supplemented with 10% FBS and 1% P/S. All cells were maintained and propagated in a humidified 5% CO2 incubator at 37° C.
(§2) To generate Ba/F3, BEAS2B, and Hek-293 cells engineered with lentivirus to express HER2 WT or HER2YVMA, the cells were transduced with lentiviruses at multiplicity of infection (MOI) of 1 or 10; transduced cells were selected and maintained with G418 ([…]) (Geneticin, Life Technologies, Carlsbad, CA). Ba/F3 engineered cells were subjected to gradual withdrawal of interleukin 3 (IL-3, Sigma-Aldrich). After selection, IL3 independent Ba/F3 HER2YVMA, and BEAS2B HER2YVMA cells were cloned by limiting dilution. Hek293 HER2YVMA cells were used as pool. HER2 and phospho HER2 levels were confirmed by flow cytometery and immunoassay (MSD, Meso-Scale Discovery, Rockville, Maryland).
(§3) Cell proliferation in non-adherent cells was investigated in Ba/F3 parental (IL3-dependent) and in the two IL3 independent cell clones tranduced to express mutant HER2 protein containing the YVMA insertion (Ba/F3 HER2YVMA). Cells were plated in DMEM supplemented with 10% FBS, 1% P/S, and 10 ng/ml IL3 (for parental Ba/F3 only) in 96-well white clear-bottom tissue culture plates (Costar, Sigma-Aldrich) at a starting cell density of 7500 cells. An 8-point standard curve with varying cell densities (starting at 100,000 cells and serially diluting down 2-fold) was prepared for each cell line and read after plating. Compound solutions were prepared in serum free media, and cells were treated as described above for adherent cells. Cell viability was determined by CellTiter Glo (Promega, Madison, WI) after 72 h. The results were converted to cell numbers using a standard curve; growth inhibition (GI50 values) were determined by Graph Pad Prism.
(§4) The results of these experiments show the ability of compounds to inhibit cell growth in HER2 dependent cell lines and a control cell line (Ba/F3 parental) are depicted in Table 4 in the columns titled “G150 (nM)”. Ba/F3 parental results fall under the heading “Ba/F3 parental-G150”, and Ba/F3 HER2YVMA fall under the heading “Ba/F3 YVMA-G150”.

Ba/F3 parental cells = experiment: Cellular proliferation in Ba/F3 parental (IL3-dependent) cells; assay type: cell-based, murine; conditions: Mus musculus, BaF3
Procedure: as §1, §3, §4

HER2YVMA = HER2YVMA (Homo sapiens, UniProt P04626, INS775YVMA); experiment: HER2 signaling (pHER2) in Ba/F3-HER2YVMA cells; assay type: cell-based; design: expressed in transfected cells; host or cells: HEK293 (pool), Ba/F3 (clones), BEAS2B (clones); lentiviral vector pCDH-CMV-MCS-EF1-Neo; conditions: read-out: Ba/F3 YVMA pHER2 EC50
HER2YVMA, sequence (P04626 with tags, fused parts or gaps INS775YVMA): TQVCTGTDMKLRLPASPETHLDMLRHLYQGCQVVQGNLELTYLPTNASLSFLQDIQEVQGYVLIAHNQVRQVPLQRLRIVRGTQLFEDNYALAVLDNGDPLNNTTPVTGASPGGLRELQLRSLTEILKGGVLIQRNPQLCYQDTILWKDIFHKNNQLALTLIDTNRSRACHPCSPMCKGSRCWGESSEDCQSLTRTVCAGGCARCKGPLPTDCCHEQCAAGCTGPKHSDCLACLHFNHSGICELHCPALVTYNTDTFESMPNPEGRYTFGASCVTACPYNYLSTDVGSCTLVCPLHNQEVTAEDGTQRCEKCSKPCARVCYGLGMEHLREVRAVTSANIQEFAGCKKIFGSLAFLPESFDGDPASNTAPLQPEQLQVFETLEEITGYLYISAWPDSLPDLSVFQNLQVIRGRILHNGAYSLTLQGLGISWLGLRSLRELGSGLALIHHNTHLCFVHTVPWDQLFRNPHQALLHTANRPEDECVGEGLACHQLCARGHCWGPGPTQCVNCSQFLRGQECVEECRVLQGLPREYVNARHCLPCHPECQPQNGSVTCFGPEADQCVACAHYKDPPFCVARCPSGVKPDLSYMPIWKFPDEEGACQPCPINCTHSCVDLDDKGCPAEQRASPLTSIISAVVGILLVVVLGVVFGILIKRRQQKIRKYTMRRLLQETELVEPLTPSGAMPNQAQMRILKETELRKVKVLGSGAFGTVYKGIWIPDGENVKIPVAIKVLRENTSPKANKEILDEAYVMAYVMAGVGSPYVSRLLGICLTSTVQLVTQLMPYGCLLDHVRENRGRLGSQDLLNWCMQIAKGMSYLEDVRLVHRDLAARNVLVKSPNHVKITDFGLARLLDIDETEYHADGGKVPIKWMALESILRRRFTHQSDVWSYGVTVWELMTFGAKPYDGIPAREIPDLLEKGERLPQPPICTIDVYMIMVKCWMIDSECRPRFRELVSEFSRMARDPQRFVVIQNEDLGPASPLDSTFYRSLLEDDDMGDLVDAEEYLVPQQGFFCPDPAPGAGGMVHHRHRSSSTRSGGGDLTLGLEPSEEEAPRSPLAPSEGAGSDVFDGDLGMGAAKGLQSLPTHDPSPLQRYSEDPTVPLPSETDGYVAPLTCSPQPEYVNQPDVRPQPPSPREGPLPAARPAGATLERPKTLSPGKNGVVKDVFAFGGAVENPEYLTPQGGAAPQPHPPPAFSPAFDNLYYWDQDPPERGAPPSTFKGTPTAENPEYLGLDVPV
Procedure: Cell culture, plasmid cloning, and lentiviral transduction were carried out according to standard procedures. The Human HER2 cDNA construct in pCMV6-Entry for the HER2 wildtype (WT) expression was obtained from Origene. The HER2 cDNA including the 12-nucleotide insertion corresponding to YVMA insertion (HER2YVMA) was codon optimized, synthesized and cloned by GenScript (Piscataway, NJ) in pcDNA3.1. The lentiviral constructs expressing HER2YVMA and HER2 WT were sub-cloned using PCR at System Biosciences (SBI, Mountainview, CA) into lentiviral vectors pCDH-CMV-MCS-EF1-Neo and lentiviral particles were generated.
as §1, §2
Compound treatment of Ba/F3-HER2YVMA suspension cells was done as described with minor modifications. Cells were plated at 300000 cell/well in 96-well round bottom plates in RPMI supplemented with 2% FBS and immediately dosed with compounds serially diluted in media without serum for a final concentration of 1% FBS, 0.1% DMSO. Cells were incubate with compounds for 1.5 hr, and plates were spun at 1500 rpm for 5 mins to remove media without disturbing pellet. Cells were lysed as described above.
HER2 signaling was evaluated using phospho (Tyr1248)/total ErbB2 whole cell lysate MSD plates (Meso-Scale Discovery, Gaithersburg, MD). The phospho HER2 signal was normalized to total HER2 for each sample; results are reported as % DMSO control. The normalized data was fitted using a sigmoidal curve analysis program (Graph Pad Prism version 6) with variable Hill slope to determine EC50 values.
The HER2 signaling results are provided in Table 4, under columns titled “BT474-pHER2 EC50”, “N87-pHER2 EC50”, and “NCI-H1781-pHER2 EC50”. Hek293-HER2YVMA ins fall under the heading “HEKYVMA-pHER2 EC50”, Ba/F3 HER2YVMA fall under the heading “Ba/F3 YVMA-pHER2 EC50” and BEAS2B-HER2YVMA fall under the heading “BEAS2B YVMA-pHER2 EC50”.

Compound | GI50 (Ba/F3 HER2YVMA cells) [µM] | EC50 (HER2YVMA) [µM] | GI50 (Ba/F3 parental cells) [µM]
Cc1ccc(Oc2ccc(Nc3ncnc4sc5c(c34)C(C)CN(C(=O)C=CCN(C)C)C5)cc2C)cn1 (single isomer, unassigned) [Compound 106] | < 0.1 |  | 1 to 10
Cc1ccc(Oc2ccc(Nc3ncnc4sc5c(c34)CCN(C(=O)/C=C/CN3CC4C(CO)C4C3)C5)cc2C)cn1 (stereo not shown) [Compound 34] | < 0.1 | < 0.1 | 1 to 10
Cc1ccc(Oc2ccc(Nc3ncnc4sc5c(c34)CCN(C(=O)/C=C/CN(C)C(C)(C)C)C5)cc2C)cn1 [Compound 33] | < 0.1 | < 0.1 | 1 to 10

Now from value to compound, other results behind:

GI50 (Ba/F3 HER2YVMA cells) [µM] | EC50 (HER2YVMA) [µM] | Compound | GI50 (Ba/F3 parental cells) [µM]
< 0.1 |  | Cc1ccc(Oc2ccc(Nc3ncnc4sc5c(c34)CN(C(=O)/C=C/CN(C)C)C5)cc2C)cn1 [Compound 99, (E)-4-(dimethylamino)-1-(4-((3-methyl-4-((6-methylpyridin-3-yl)oxy)phenyl)amino)-5,7-dihydro-6H-pyrrolo[3′,4′:4,5]thieno[2,3-d]pyrimidin-6-yl)but-2-en-1-one] | 1 to 10
 | < 0.1 | CN(C)C/C=C/C(=O)N1CCc2c(sc3ncnc(Nc4ccc(Oc5ccc6ncnn6c5)c(Cl)c4)c23)C1 [Compound 5, (E)-1-(4-((4-([1,2,4]triazolo[1,5-a]pyridin-6-yloxy)-3-chlorophenyl)amino)-5,8-dihydropyrido[4′,3′:4,5]thieno[2,3-d]pyrimidin-7(6H)-yl)-4-(dimethylamino)but-2-en-1-one] | 
< 0.1 |  | COc1ccc(Oc2ccc(Nc3ncnc4sc5c(c34)CCN(C(=O)/C=C/CN(C)C)C5)cc2C)cn1 [Compound 95, (E)-4-(Dimethylamino)-1-(4-((4-((6-methoxypyridin-3-yl)oxy)-3-methylphenyl)amino)-5,6-dihydropyrido[4′,3′:4,5]thieno[2,3-d]pyrimidin-7(8H)-yl)but-2-en-1-one] | 1 to 10
